Experimental data as given in PubChem BioAssay AID256 (DTP/NCI, 2004).
“And” between values parts separate entries of the source, which are not always exact repeats. Equal entries are not always repeated. Toxic doses and inconclusive results are not listed. How the source made its calls: active means survival T/C of 150% or more; inactive means T/C below 125% in these data.

Tested on: CD2F1 mice, L1210 leukemia ip, survival T/C
Experiment: NCI In Vivo Anticancer Drug Screen. Data for tumor model L1210 Leukemia (intraperitoneal) in CD2F1 (CDF1) mice
Conditions: higher = longer survival
Summary of the method: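 In this screen, transplantable tumors were grown in mice given either the compound or its vehicle. Results were expressed as the treated measurement relative to the control measurement.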

[1] = endpoint: mean survival time, dose: 100.0 mg/kg/injection, schedule: Q01DX009 (ip), vehicle: saline with Tween-80
[2] = endpoint: mean survival time, dose: 100.0 mg/kg/injection, schedule: Q04DX003 (ip), vehicle: saline with Tween-80
[3] = endpoint: mean survival time, dose: 200.0 mg/kg/injection, schedule: Q01DX009 (ip), vehicle: saline with Tween-80
[4] = endpoint: mean survival time, dose: 200.0 mg/kg/injection, schedule: Q04DX003 (ip), vehicle: saline with Tween-80
[5] = endpoint: mean survival time, dose: 400.0 mg/kg/injection, schedule: Q01DX009 (ip), vehicle: saline with Tween-80
[6] = endpoint: mean survival time, dose: 400.0 mg/kg/injection, schedule: Q04DX003 (ip), vehicle: saline with Tween-80
[7] = endpoint: mean survival time, dose: 25.0 mg/kg/injection, schedule: Q04DX003 (ip), vehicle: saline with Tween-80
[8] = endpoint: mean survival time, dose: 50.0 mg/kg/injection, schedule: Q04DX003 (ip), vehicle: saline with Tween-80
[9] = endpoint: mean survival time, dose: 100.0 mg/kg/injection, schedule: Q01DX009 (ip), vehicle: saline
[10] = endpoint: mean survival time, dose: 200.0 mg/kg/injection, schedule: Q01DX009 (ip), vehicle: saline
[11] = endpoint: mean survival time, dose: 400.0 mg/kg/injection, schedule: Q01DX009 (ip), vehicle: saline
[12] = endpoint: mean survival time, dose: 50.0 mg/kg/injection, schedule: Q01DX009 (ip), vehicle: saline with Tween-80
[13] = endpoint: mean survival time, dose: 100.0 mg/kg/injection, schedule: Q04DX003 (ip), vehicle: Klucel (hydroxypropylcellulose) (HPC)
[14] = endpoint: mean survival time, dose: 200.0 mg/kg/injection, schedule: Q04DX003 (ip), vehicle: Klucel (hydroxypropylcellulose) (HPC)
[15] = endpoint: mean survival time, dose: 400.0 mg/kg/injection, schedule: Q04DX003 (ip), vehicle: Klucel (hydroxypropylcellulose) (HPC)
[16] = endpoint: mean survival time, dose: 25.0 mg/kg/injection, schedule: Q04DX002 (ip), vehicle: saline with Tween-80
[17] = endpoint: mean survival time, dose: 50.0 mg/kg/injection, schedule: Q04DX002 (ip), vehicle: saline with Tween-80
[18] = endpoint: mean survival time, dose: 25.0 mg/kg/injection, schedule: Q04DX003 (ip), vehicle: saline
[19] = endpoint: mean survival time, dose: 50.0 mg/kg/injection, schedule: Q04DX003 (ip), vehicle: saline
[20] = endpoint: mean survival time, dose: 100.0 mg/kg/injection, schedule: Q04DX002 (ip), vehicle: saline with Tween-80
[21] = endpoint: mean survival time, dose: 200.0 mg/kg/injection, schedule: Q04DX002 (ip), vehicle: saline with Tween-80
[22] = endpoint: mean survival time, dose: 400.0 mg/kg/injection, schedule: Q04DX002 (ip), vehicle: saline with Tween-80

Measured: T/C

Cc1ccc(S(=O)(=O)N(Cc2ccc(Cl)cc2)N2CCOC2=O)cc1
inactive: endpoint: mean survival time, dose: 50.0 mg/kg/injection, schedule: Q01DX009 (ip), vehicle: Klucel (hydroxypropylcellulose) (HPC) 92 % of control | endpoint: mean survival time, dose: 100.0 mg/kg/injection, schedule: Q01DX009 (ip), vehicle: Klucel (hydroxypropylcellulose) (HPC) 93 % of control | endpoint: mean survival time, dose: 200.0 mg/kg/injection, schedule: Q01DX009 (ip), vehicle: Klucel (hydroxypropylcellulose) (HPC) 98 % of control

CN(CCl)S(=O)(=O)c1ccccc1
inactive: [1] 100 % of control | [2] 112 % of control | [3] 104 % of control | [4] 101 % of control | [5] 102 % of control | [6] 100 % of control

OC(c1ccccc1)(c1ccc(-c2ccccc2)cc1)C(O)(c1ccccc1)c1ccc(-c2ccccc2)cc1 (stereo not drawn)
inactive: [7] 96 % of control | [8] 90 % of control | [2] 90 % of control and 100 % of control | [4] 92 % of control | [6] 92 % of control

Cc1cn(C2CC(O)C(CO)O2)c(=O)nc1NCc1cccs1 (stereo not drawn)
inactive: endpoint: median survival time, dose: 12.5 mg/kg/injection, schedule: Q01DX005 (ip), vehicle: water 103 % of control | endpoint: median survival time, dose: 25.0 mg/kg/injection, schedule: Q01DX005 (ip), vehicle: water 105 % of control | endpoint: median survival time, dose: 50.0 mg/kg/injection, schedule: Q01DX005 (ip), vehicle: water 106 % of control | endpoint: median survival time, dose: 100.0 mg/kg/injection, schedule: Q01DX005 (ip), vehicle: water 101 % of control | endpoint: median survival time, dose: 200.0 mg/kg/injection, schedule: Q01DX005 (ip), vehicle: water 103 % of control

CCc1ccc(NN=Nc2ccccc2C#N)cc1
inactive: [2] 95 % of control | [4] 95 % of control | [6] 98 % of control

COC(=O)CC(C)Cc1ccc(OC)c(OC)c1 (stereo not drawn)
inactive: [9] 97 % of control | [2] 97 % of control | [10] 95 % of control | [4] 100 % of control | [11] 86 % of control | [6] 96 % of control

CCCCCCCCC1SC1CCCCCCCC(=O)NCCOC(=O)CCCCCCCC1SC1CCCCCCCC (stereo not drawn)
inactive: [1] 92 % of control | [3] 95 % of control | [5] 93 % of control

CC1(C)N=C(N)N=C(N)N1c1cccc(/C=C(\C#N)c2ccccc2)c1
inactive: endpoint: mean survival time, dose: 100.0 mg/kg/injection, schedule: Q04DX002 (ip), vehicle: Klucel (hydroxypropylcellulose) (HPC) 98 % of control | endpoint: mean survival time, dose: 200.0 mg/kg/injection, schedule: Q04DX002 (ip), vehicle: Klucel (hydroxypropylcellulose) (HPC) 95 % of control

CCCN(CCC)CCCCCCO
inactive: [12] 98 % of control | [1] 98 % of control | [3] 97 % of control

COc1cccc(OC)c1OC(=O)Nc1c(Cl)cccc1Cl
inactive: [12] 96 % of control | [1] 92 % of control | [3] 105 % of control

CC1=NN(c2ccccc2)C(=O)C1N=Nc1ccccc1S(=O)(=O)O (stereo not drawn)
inactive: [1] 103 % of control | [2] 97 % of control | [3] 97 % of control | [4] 103 % of control | [5] 101 % of control | [6] 112 % of control

NCCNCCNCc1ccccc1
inactive: [9] 94 % of control | [10] 107 % of control

O=[N+]([O-])/C=C\c1ccccc1
inactive: [2] 96 % of control | [4] 90 % of control | [6] 86 % of control

Cc1ccc(-n2c(O)c(C=N)c(=O)n(-c3ccc(C)cc3)c2=O)cc1
inactive: [2] 95 % of control | [4] 95 % of control | [6] 97 % of control

CCOC(=O)C[N+](CC)(CC)CC
inactive: [13] 96 % of control | [14] 96 % of control | [15] 93 % of control

Cc1cc(C)cc(NC(=O)c2ccccc2N)c1
inactive: [1] 107 % of control | [3] 95 % of control | [5] 107 % of control

O=C(c1ccccc1)c1ccsc1C(=O)O
inactive: [16] 96 % of control | [17] 96 % of control

CC(Cc1ccc(O)cc1)NCC(O)c1ccc(O)c(O)c1 (stereo not drawn)
inactive: endpoint: mean survival time, dose: 12.5 mg/kg/injection, schedule: Q01DX009 (ip), vehicle: saline with Tween-80 102 % of control and 104 % of control | endpoint: mean survival time, dose: 25.0 mg/kg/injection, schedule: Q01DX009 (ip), vehicle: saline with Tween-80 103 % of control and 104 % of control | [12] 105 % of control and 111 % of control | [1] 108 % of control and 111 % of control | [3] 103 % of control and 111 % of control | [5] 113 % of control and 112 % of control

COC1=CCC2C(=O)C=CC(=O)C2C1 (stereo not drawn)
inactive: endpoint: mean survival time, dose: 12.5 mg/kg/injection, schedule: Q01DX005 (ip), vehicle: Klucel (hydroxypropylcellulose) (HPC) 95 % of control | endpoint: mean survival time, dose: 25.0 mg/kg/injection, schedule: Q01DX005 (ip), vehicle: Klucel (hydroxypropylcellulose) (HPC) 95 % of control | endpoint: mean survival time, dose: 50.0 mg/kg/injection, schedule: Q01DX005 (ip), vehicle: Klucel (hydroxypropylcellulose) (HPC) 93 % of control | endpoint: mean survival time, dose: 100.0 mg/kg/injection, schedule: Q01DX005 (ip), vehicle: Klucel (hydroxypropylcellulose) (HPC) 91 % of control | endpoint: mean survival time, dose: 200.0 mg/kg/injection, schedule: Q01DX005 (ip), vehicle: Klucel (hydroxypropylcellulose) (HPC) 90 % of control

COc1ccc2c(C)cc(C)nc2n1
inactive: endpoint: mean survival time, dose: 75.0 mg/kg/injection, schedule: Q01DX001 (ip), vehicle: other 95 % of control | endpoint: mean survival time, dose: 150.0 mg/kg/injection, schedule: Q01DX001 (ip), vehicle: other 104 % of control | endpoint: mean survival time, dose: 300.0 mg/kg/injection, schedule: Q01DX001 (ip), vehicle: other 104 % of control

Cc1c(-c2ccc(Cl)cc2)nc2cc(Cl)ccc2c1C(=O)O
inactive: endpoint: mean survival time, dose: 100.0 mg/kg/injection, schedule: Q04DX002 (ip), vehicle: saline 92 % of control | endpoint: mean survival time, dose: 200.0 mg/kg/injection, schedule: Q04DX002 (ip), vehicle: saline 88 % of control | endpoint: mean survival time, dose: 400.0 mg/kg/injection, schedule: Q04DX002 (ip), vehicle: saline 98 % of control

CC(=O)SCCC(=O)O
inactive: [18] 96 % of control | [19] 104 % of control

CC(C(=O)OC1CCCC2OC12)S(=O)(=O)c1ccccc1 (stereo not drawn)
inactive: [12] 90 % of control | [1] 94 % of control | [3] 94 % of control

CCOC(=O)/C=C(C)/C=C/C1C(C)=CCCC1(C)C (stereo not drawn)
inactive: [20] 103 % of control | [21] 92 % of control | [22] 100 % of control

O=S(O)C(=Nc1ccccc1)Nc1ccccc1
inactive: [1] 94 % of control | [3] 106 % of control

Cc1cn(CC(=O)C2(O)CCC3C4CCC5=CC(=O)CCC5(C)C4C(=O)CC32C)c(=O)[nH]c1=O (stereo not drawn)
inactive: endpoint: mean survival time, dose: 12.5 mg/kg/injection, schedule: Q04DX003 (ip), vehicle: Klucel (hydroxypropylcellulose) (HPC) 94 % of control | endpoint: mean survival time, dose: 25.0 mg/kg/injection, schedule: Q04DX003 (ip), vehicle: Klucel (hydroxypropylcellulose) (HPC) 105 % of control | endpoint: mean survival time, dose: 50.0 mg/kg/injection, schedule: Q04DX003 (ip), vehicle: Klucel (hydroxypropylcellulose) (HPC) 94 % of control | [13] 94 % of control | [14] 94 % of control

CCCCC(CC)(CO)C(=O)NN (stereo not drawn)
inactive: [2] 97 % of control | [4] 100 % of control | [6] 97 % of control

Cc1c(Cl)ccc(OCC2=NCCN2)c1C
inactive: [16] 109 % of control | [17] 97 % of control | [20] 100 % of control and 102 % of control

CCOC(=O)c1ccc(NC(=O)Nc2ccc(Nc3ccccc3)cc2)cc1
inactive: [7] 96 % of control | [12] 96 % of control and 102 % of control | [8] 91 % of control | endpoint: mean survival time, dose: 100.0 mg/kg/injection, schedule: Q01DX001 (ip), vehicle: saline with Tween-80 100 % of control | [1] 96 % of control and 102 % of control | [20] 86 % of control and 97 % of control | [2] 92 % of control | endpoint: mean survival time, dose: 200.0 mg/kg/injection, schedule: Q01DX001 (ip), vehicle: saline with Tween-80 94 % of control | [3] 95 % of control and 98 % of control | [21] 87 % of control and 91 % of control | endpoint: mean survival time, dose: 400.0 mg/kg/injection, schedule: Q01DX001 (ip), vehicle: saline with Tween-80 103 % of control | [22] 87 % of control

Brc1ccc(C[N+]23CCN(CC2)CC3)cc1
inactive: endpoint: mean survival time, dose: 12.5 mg/kg/injection, schedule: Q04DX003 (ip), vehicle: saline 98 % of control and 111 % of control | [18] 93 % of control and 100 % of control | [19] 95 % of control and 103 % of control

CCCN(CCC)C(=O)c1cccnc1
inactive: [9] 92 % of control | [10] 92 % of control | [11] 97 % of control

Fc1cc(F)c(F)c(-c2c(F)c(F)cc(F)c2F)c1F
inactive: [12] 103 % of control | [1] 103 % of control | [3] 96 % of control

CCOC1(C)CCC/C(=N/Nc2ccc([N+](=O)[O-])cc2[N+](=O)[O-])C1 (stereo not drawn)
inactive: [13] 97 % of control | [14] 100 % of control | [15] 100 % of control
